Marks after values point to notes of the source that are not given here.
Legend:
[1] = biological target: T1, HIV-1 RT (Human immunodeficiency virus type 1 group M subtype B, UniProt P03366); assay: HIV-1 RT inhibition assay (Roche RT kit, colorimetric ELISA); assay type: biochemical; conditions: for inhibition at 1 µM: read-out: Inhibitory activities (%) against HIV-1 RT
T1 construct: The reaction mixture consisted of template/primer complex, 2′-deoxy-nucleotide-5′-triphosphates (dNTPs), and RT enzyme in lysis buffer; purchased Roche Applied Science, Mannheim, Germany
Source text: The inhibition assay of HIV-1 RT was accomplished using the template/primer hybrid poly(A) × oligo(dT)15, digoxigenin (DIG)- and biotin-labeled nucleotides, an antibody to DIG that was conjugated to peroxidase (anti-DIG-POD), and the peroxidase substrate ABTS. The quantities of DIG- and biotin-labeled dUTP incorporated into DNA represent t HIV-1 RT activity. The HIV-RT inhibition assay was implemented using an RT assay kit (Roche Applied Science, Mannheim, Germany), and the procedures for assaying RT inhibition were performed as described in the kit protocol. […] The reaction mixture consisted of template/primer complex, 2′-deoxy-nucleotide-5′-triphosphates (dNTPs), and RT enzyme in lysis buffer with or without an inhibitor. […] The biotin-labeled dNTPs that were incorporated in the template bound to streptavidin because of the presence of RT. Unbound dNTPs were washed using a wash buffer, and anti-DIG-POD was added to the MTP. The DIG-labeled dNTPs incorporated in the template bound to the anti-DIG-POD antibody. Unbound anti-DIG-POD was also washed elaborately five times using a wash buffer. Finally, the peroxide substrate (ABST) was added to the MTP. A colored reaction product emerged during the cleavage of the substrate catalyzed by […]. The absorbance of the sample was measured at the optical density (OD) at 490 nm using the MTP (enzyme-linked immunosorbent assay [ELISA]) reader. The percentage inhibitory activities of the RT inhibitors were calculated by comparing with that of the sample without an inhibitor. The resulting color intensity was directly proportional to the RT activity. Percentage inhibitory values were calculated using the following formula: Inhibition (%) = [1–(OD value with RT and inhibitor−OD value without RT and inhibitors)/(OD value without inhibitors with RT−OD value without RT and inhibitors)] × 100.

[2] = tested on: MOLT-3 (acute lymphoblastic leukemia); assay: In vitro cytotoxicity (XTT); conditions: for IC50: Homo sapiens, MOLT-3, 48 h, read-out: IC50 MOLT-3; for %C percentage cytotoxicity MOLT-3: at 50 µg/mL, inactive (IC50 ≥ 50 µg/mL)
Description: (§1) Background control wells contained the same volume as the complete culture medium. […] Samples at various concentrations were added to the microplate and incubated for another 48 h. Cell viability was determined by 3(4,5-dimethylthiazol-2-yl)-2-5-diphenyl tetrazolium bromide (MTT) assay (Sig-ma-Aldrich). The reagent was dissolved in phosphate-buffered saline at 5 mg/mL and filtered to sterilize and remove the small amount of insoluble residue present in some batches of MTT. […] Subsequently, dimethyl sulfoxide (100 µL; Merck, Germany) was added to dissolve the resulting formazan by sonication. The plates were read on a microplate reader (Molecular Devices, CA, USA) using a test wavelength of 550 nm and a reference wavelength of 650 nm. XTT assay for suspension cells was used for MOLT-3 cells.

[3] = tested on: MRC-5 (normal embryonic lung cell); assay: In vitro cytotoxicity (MTT), normal cell line; conditions: for %C percentage cytotoxicity MRC-5: normal cell line, at 50 µg/mL, inactive (IC50 ≥ 50 µg/mL); for IC50: Homo sapiens, MRC5, 48 h, read-out: IC50 MRC-5
Description: as §1

[4] = tested on: MDA-MB-231 (hormone-independent breast cancer); assay: In vitro cytotoxicity (MTT); conditions: for %C percentage cytotoxicity MDA-MB-231: at 50 µg/mL, inactive (IC50 ≥ 50 µg/mL); for IC50: Homo sapiens, MDA-MB-231, 48 h, read-out: IC50 MDA-MB-231
Description: as §1

[5] = tested on: S102 (Thai liver cancer); assay: In vitro cytotoxicity (MTT); conditions: for %C percentage cytotoxicity S102: at 50 µg/mL, inactive (IC50 ≥ 50 µg/mL); for IC50: Homo sapiens, 48 h, read-out: IC50 S102
Description: as §1

[6] = tested on: A549 (lung carcinoma); assay: In vitro cytotoxicity (MTT); conditions: for %C percentage cytotoxicity A549: at 50 µg/mL, inactive (IC50 ≥ 50 µg/mL); for IC50: Homo sapiens, A549, 48 h, read-out: IC50 A549
Description: as §1

[7] = tested on: HuCCA-1 (cholangiocarcinoma); assay: In vitro cytotoxicity (MTT); conditions: for %C percentage cytotoxicity HuCCA-1: at 50 µg/mL, inactive (IC50 ≥ 50 µg/mL); for IC50: Homo sapiens, HuCC-A1, 48 h, read-out: IC50 HuCCA-1
Description: as §1

[8] = tested on: HL-60 (promyeloblast); assay: In vitro cytotoxicity (MTT); conditions: for %C percentage cytotoxicity HL-60: at 50 µg/mL, inactive (IC50 ≥ 50 µg/mL); for IC50: Homo sapiens, HL-60, 48 h, read-out: IC50 HL-60
Description: as §1

[9] = tested on: HepG2 (hepatocarcinoma); assay: In vitro cytotoxicity (MTT); conditions: for %C percentage cytotoxicity HepG2: at 50 µg/mL, inactive (IC50 ≥ 50 µg/mL); for IC50: Homo sapiens, HepG2, 48 h, read-out: IC50 HepG2
Description: as §1

[10] = tested on: T47-D (hormone-dependent breast cancer); assay: In vitro cytotoxicity (MTT); conditions: for %C percentage cytotoxicity T47-D: at 50 µg/mL, inactive (IC50 ≥ 50 µg/mL); for IC50: Homo sapiens, T47D, 48 h, read-out: IC50 T47-D
Description: as §1

[11] = tested on: HeLA (cervical carcinoma); assay: In vitro cytotoxicity (MTT); conditions: for IC50: Homo sapiens, HeLa, 48 h, read-out: IC50 HeLA; for %C percentage cytotoxicity HeLA: at 50 µg/mL, inactive (IC50 ≥ 50 µg/mL)
Description: as §1

[12] = tested on: H69AR (lung cancer, multidrug resistant); assay: In vitro cytotoxicity (MTT); assay type: cell-based, human; conditions: 48 h; for %C percentage cytotoxicity H69AR: human, 50 µg/mL; for IC50: Homo sapiens, H69AR, mean ± standard error
Description: Background control wells contained the same volume as the complete culture medium. […] The reagent was dissolved in phosphate-buffered saline at 5 mg/mL and filtered to sterilize and remove the small amount of insoluble residue present in some batches of MTT. […] Subsequently, dimethyl sulfoxide (100 µL; Merck, Germany) was added to dissolve the resulting formazan by sonication. The plates were read on a microplate reader (Molecular Devices, CA, USA) using a test wavelength of 550 nm and a reference wavelength of 650 nm.

Compound	IC50 [2]	%C percentage cytotoxicity MRC-5 [3]	%C percentage cytotoxicity MDA-MB-231 [4]	%C percentage cytotoxicity S102 [5]	%C percentage cytotoxicity A549 [6]	%C percentage cytotoxicity HuCCA-1 [7]	%C percentage cytotoxicity HL-60 [8]	%C percentage cytotoxicity HepG2 [9]	%C percentage cytotoxicity T47-D [10]	IC50 [11]	%C percentage cytotoxicity H69AR [12]	inhibition at 1 µM [1]	IC50 [8]	IC50 [9]	also measured
4,4′-di-(2’,6’-Dimethyl-4’-formylphenoxy)-2,2′-biquinoline [Compound 7b]															Inhibitory activities (%) against HIV-1 RT ([1]; 1 µM, mean ± standard error): 30.3 ± 2.3%
Cc1cc(/C=C\C#N)cc(C)c1Oc1cc(Nc2ccc(C#N)cc2)nc2ccccc12 [Compound 9b-cis, 4-(4′-(2″-(E, Z)-cyanovinyl)-2′,6′-dimethyl-phenoxy)-2-(4″-cyanophenyl)-aminoquinoline]	52.8 ± 2.1 µM	%C = 0.0 ^c	%C = 10.0 ^c	%C = 0.0 ^c	%C = 1.0 ^c	%C = 10.0	%C = 42.0 ^c	%C = 9.8 ^c	%C = 5.0 ^c	97.2 ± 5.1 µM	%C = 0.0 ^c	32.5 ± 2.8%			
Cc1cc(/C=C/C#N)cc(C)c1Oc1cc(Nc2ccc(C#N)cc2)nc2ccccc12 [Compound 9b-trans, 4-(4′-(2″-(E, Z)-cyanovinyl)-2′,6′-dimethyl-phenoxy)-2-(4″-cyanophenyl)-aminoquinoline]		%C = 28.4 ^c	%C = 24.9 ^c	%C = 0.0 ^c	%C = 8.0 ^c	%C = 8.0 ^c	%C = 17.0 ^c	%C = 42.9 ^c	%C = 0.0 ^c		%C = 14.0 ^c	35.9 ± 3.1%			%C percentage cytotoxicity MOLT-3 [2]: %C = 19.0 ^c; %C percentage cytotoxicity HeLA [11]: %C = 38.0 ^c
Cc1cc(/C=C\C#N)cc(C)c1Oc1cc(Nc2ccc(C#N)cn2)nc2ccccc12 [Compound 10b-cis, 4-(4′-(2″-(E, Z)-cyanovinyl)-2′,6′-dimethyl-phenoxy)-2-(5″-cyanopyridin-2″ylamino)-aminoquinoline]		%C = 0.0 ^c	%C = 0.0 ^c	%C = 0.0 ^c	%C = 0.0 ^c	%C = 0.0 ^c	%C = 5.0 ^c	%C = 0.0 ^c	%C = 0.0 ^c		%C = 0.0 ^c	29.4 ± 3.6%			%C percentage cytotoxicity MOLT-3 [2]: %C = 11.0 ^c; %C percentage cytotoxicity HeLA [11]: %C = 0.0 ^c
COc1cccc2c1C(=O)c1c(O)c3c(c(O)c1C2=O)C[C@@](O)(C(=O)CO)C[C@@H]3O[C@H]1C[C@H](N)[C@H](O)[C@H](C)O1 [Doxorubicin, reference compound]	0.02 µM									0.4 µM			0.1 µM	0.6 µM	IC50 [3]: 3.1 ± 0.5 µM; IC50 [4]: 2.5 ± 0.1 µM; IC50 [5]: 2.2 µM; IC50 [6]: 0.6 µM; IC50 [7]: 0.9 µM; IC50 [10]: 1.2 µM; IC50 [12]: 34.3 ± 0.1 µM
O=C1Nc2ccc(Cl)cc2[C@@](C#CC2CC2)(C(F)(F)F)O1 [EFV, efavirenz, reference compound]	24.6 ± 1.2 µM									46.2 ± 1.3 µM			33.7 ± 1.1 µM	86.6 ± 3.9 µM	IC50 [3]: 95.6 ± 6 µM; IC50 [4]: 77.7 ± 5.6 µM; IC50 [5]: 93.5 ± 4.7 µM; IC50 [6]: 60.2 ± 1.8 µM; IC50 [7]: 59.6 ± 2.4 µM; IC50 [10]: 59.2 ± 0.8 µM; IC50 [12]: 105 ± 3.4 µM
COc1cc([C@@H]2c3cc4c(cc3[C@@H](O[C@@H]3O[C@@H]5CO[C@@H](C)O[C@H]5[C@H](O)[C@H]3O)[C@H]3COC(=O)[C@H]23)OCO4)cc(OC)c1O [Etoposide, etoposide, reference compound]	0.03 µM												0.8 ± 0.1 µM	49.9 ± 1.1 µM	

Source: PMC8781960, “Structural Basis of 2-Phenylamino-4-phenoxyquinoline Derivatives as Potent HIV-1 Non-Nucleoside Reverse Transcriptase Inhibitors” (Molecules, 2022)
